Measured values: publication PMC10004634 (PLOS ONE, 2023)

What was measured:
RIPK2 = RIPK2 (Homo sapiens, UniProt O43353); test: KINOMEscan binding assay; conditions: 300 nM; read-out: inhibition of kinase binding (KINOMEscan)
U-2932 cells = test: SILAC phosphoproteomic analysis
Description: For differential SILAC encoding, both cells were grown in arginine- and lysine-deficient culture medium containing light (Arg0/Lys0) or heavy (Arg10/Lys8) isotopic forms of L-arginine and L-lysine (SILAC medium). […] For mass spectrometric analysis, phosphopeptide-enriched samples were loaded onto a reversed phase analytical column, resolved by an acetonitrile gradient using a nanoflow HPLC system and directly electrosprayed via a nanoelectrospray ion source into an LTQ-Orbitrap Velos mass spectrometer (Thermo Fisher Scientific). […] A false discovery rate (FDR) of 0.01 was selected for protein and peptide identification, and a posterior error probability of ≤0.1 for each peptide-to-spectral match was required. The resulting list of phosphosites exported from the MaxQuant software was filtered for class-I sites (only serine, threonine, or tyrosine assignments with a localization probability of ≥0.75) [33] and used for all subsequent biostatistical analysis. […] Gaussian regression analysis on the histogram plot of these log2-transformed ratios was performed using Sigmaplot (version 10.0; Systat Software Inc.). The obtained values for the mean and standard deviation across the whole quantitative dataset were used to determine thresholds for significant regulation of at least ±2.5 σ. […] Furthermore, only phosphosites conforming to this criterion and showing consistent regulation in both biological replicates were considered as regulated.

ERBB2 = ERBB2 (Homo sapiens, UniProt P04626); test: Z'-Lyte kinase inhibition assay; format: biochemical; set-up: purchased Thermo Fisher Scientific (Invitrogen Z'-Lyte service); conditions: 60 min preincubation
Description: In all the assays, each test compound was preincubated with peptide/kinase mixture or kinase/antibody mixture for 60 min at room temperature before adding the ATP solution or AlexaFluor labeled Tracer to initiate the 60-min incubation of the reactants.

Sequence of RIPK2 (O43353 whole entry): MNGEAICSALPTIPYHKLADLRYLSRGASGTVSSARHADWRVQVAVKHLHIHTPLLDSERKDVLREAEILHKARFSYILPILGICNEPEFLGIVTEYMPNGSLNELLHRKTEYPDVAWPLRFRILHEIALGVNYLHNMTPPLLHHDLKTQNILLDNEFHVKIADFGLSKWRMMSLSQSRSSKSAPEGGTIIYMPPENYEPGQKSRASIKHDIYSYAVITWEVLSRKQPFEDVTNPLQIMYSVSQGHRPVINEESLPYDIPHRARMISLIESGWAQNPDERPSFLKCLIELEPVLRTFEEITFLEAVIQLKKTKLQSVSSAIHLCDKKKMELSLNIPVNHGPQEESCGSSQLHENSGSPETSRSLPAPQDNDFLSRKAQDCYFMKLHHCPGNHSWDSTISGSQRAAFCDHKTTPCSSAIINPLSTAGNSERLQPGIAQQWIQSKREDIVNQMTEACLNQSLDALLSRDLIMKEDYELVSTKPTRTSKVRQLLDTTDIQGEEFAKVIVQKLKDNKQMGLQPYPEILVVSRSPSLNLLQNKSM
Sequence of ERBB2 (P04626 23-1255): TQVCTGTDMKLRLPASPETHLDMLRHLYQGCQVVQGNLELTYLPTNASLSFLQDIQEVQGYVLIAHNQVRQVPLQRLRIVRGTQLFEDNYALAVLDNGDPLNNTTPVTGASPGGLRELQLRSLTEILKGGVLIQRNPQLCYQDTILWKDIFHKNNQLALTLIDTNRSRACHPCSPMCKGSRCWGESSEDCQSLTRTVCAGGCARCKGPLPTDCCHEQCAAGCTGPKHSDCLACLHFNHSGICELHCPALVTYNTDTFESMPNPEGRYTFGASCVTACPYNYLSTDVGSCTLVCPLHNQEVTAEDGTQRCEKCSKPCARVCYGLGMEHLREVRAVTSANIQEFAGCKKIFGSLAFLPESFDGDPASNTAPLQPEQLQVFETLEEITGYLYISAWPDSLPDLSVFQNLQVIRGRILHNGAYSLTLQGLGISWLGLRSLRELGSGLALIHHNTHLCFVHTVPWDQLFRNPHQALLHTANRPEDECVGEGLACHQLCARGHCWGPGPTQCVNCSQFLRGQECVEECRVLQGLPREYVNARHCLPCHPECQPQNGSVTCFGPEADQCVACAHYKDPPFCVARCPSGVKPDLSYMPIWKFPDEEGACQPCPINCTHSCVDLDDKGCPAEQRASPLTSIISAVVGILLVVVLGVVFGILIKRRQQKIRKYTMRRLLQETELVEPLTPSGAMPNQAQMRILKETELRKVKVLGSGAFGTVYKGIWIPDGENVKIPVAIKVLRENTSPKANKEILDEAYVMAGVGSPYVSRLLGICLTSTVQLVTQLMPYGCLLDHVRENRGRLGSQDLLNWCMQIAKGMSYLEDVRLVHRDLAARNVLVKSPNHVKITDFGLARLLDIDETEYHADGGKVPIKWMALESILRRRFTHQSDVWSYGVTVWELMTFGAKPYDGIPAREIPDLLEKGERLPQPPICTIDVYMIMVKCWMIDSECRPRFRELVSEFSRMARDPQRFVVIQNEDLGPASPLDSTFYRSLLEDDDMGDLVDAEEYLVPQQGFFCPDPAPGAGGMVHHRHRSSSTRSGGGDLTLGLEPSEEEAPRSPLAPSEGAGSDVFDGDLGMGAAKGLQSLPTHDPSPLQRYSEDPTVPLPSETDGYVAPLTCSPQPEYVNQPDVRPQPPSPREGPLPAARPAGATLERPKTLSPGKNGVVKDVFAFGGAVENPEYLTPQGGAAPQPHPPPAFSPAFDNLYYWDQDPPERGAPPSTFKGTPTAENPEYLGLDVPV

CC#CC(=O)N1CC[C@@H](n2c(=O)n(-c3ccc(Oc4ccccc4)cc3)c3c(N)ncnc32)C1 [Tirabrutinib]
inhibition at 0.3 µM (RIPK2): 67%
number of downregulated (suppressed) phosphorylation sites (U-2932 cells; 1 μM, 1 h, ratio <0.664): 30
number of upregulated (induced) phosphorylation sites (U-2932 cells; 1 μM, 1 h, ratio >1.506): four
Tirabrutinib/ctrl. rep. 1 (U-2932 cells; AKT1S1 S88): 1.16
Tirabrutinib/ctrl. rep. 2 (U-2932 cells; AKT1S1 S88): 1.03
Tirabrutinib/ctrl. rep. 1 (U-2932 cells; AKT1S1 S183): 0.86
Tirabrutinib/ctrl. rep. 2 (U-2932 cells; AKT1S1 S183): 0.93
Tirabrutinib/ctrl. rep. 2 (U-2932 cells; AKT1S1 T97): 0.84
Tirabrutinib/ctrl. rep. 1 (U-2932 cells; AKT1S1 T246): 0.84
Tirabrutinib/ctrl. rep. 2 (U-2932 cells; AKT1S1 T246): 0.87
Tirabrutinib/ctrl. rep. 2 (U-2932 cells; AKT1 S124): 0.96
Tirabrutinib/ctrl. rep. 1 (U-2932 cells; AKT2 S126): 1.09
Tirabrutinib/ctrl. rep. 2 (U-2932 cells; AKT2 S126): 0.97
Tirabrutinib/ctrl. rep. 1 (U-2932 cells; ATF2 S90): 0.87
Tirabrutinib/ctrl. rep. 2 (U-2932 cells; ATF2 S90): 0.93
Tirabrutinib/ctrl. rep. 1 (U-2932 cells; ATF2 S112): 1.02
Tirabrutinib/ctrl. rep. 2 (U-2932 cells; ATF2 S112): 1.00
Tirabrutinib/ctrl. rep. 1 (U-2932 cells; ATF2 T71): 0.99
Tirabrutinib/ctrl. rep. 2 (U-2932 cells; ATF2 T71): 0.86
Tirabrutinib/ctrl. rep. 1 (U-2932 cells; ATF2 T73): 0.69
Tirabrutinib/ctrl. rep. 2 (U-2932 cells; CARD11 S483): 1.78
Tirabrutinib/ctrl. rep. 1 (U-2932 cells; CARD11 S610): 0.99
Tirabrutinib/ctrl. rep. 2 (U-2932 cells; CARD11 S610): 0.96
Tirabrutinib/ctrl. rep. 1 (U-2932 cells; CARD11 S903): 1.10
Tirabrutinib/ctrl. rep. 2 (U-2932 cells; CARD11 S903): 1.31
Tirabrutinib/ctrl. rep. 1 (U-2932 cells; CARD11 S910): 1.78
Tirabrutinib/ctrl. rep. 2 (U-2932 cells; CARD11 S910): 0.95
Tirabrutinib/ctrl. rep. 1 (U-2932 cells; CARD11 S942): 0.96
Tirabrutinib/ctrl. rep. 2 (U-2932 cells; CARD11 S942): 0.97
Tirabrutinib/ctrl. rep. 1 (U-2932 cells; ERF S21): 0.26
Tirabrutinib/ctrl. rep. 1 (U-2932 cells; HSP27 S78): 1.14
Tirabrutinib/ctrl. rep. 2 (U-2932 cells; HSP27 S78): 0.79
Tirabrutinib/ctrl. rep. 1 (U-2932 cells; HSP27 S82): 1.09
Tirabrutinib/ctrl. rep. 2 (U-2932 cells; HSP27 S82): 0.76
Tirabrutinib/ctrl. rep. 1 (U-2932 cells; HSP27 S86): 0.81
Tirabrutinib/ctrl. rep. 2 (U-2932 cells; HSP27 S86): 1.16
Tirabrutinib/ctrl. rep. 1 (U-2932 cells; IKBKB S550): 0.86
Tirabrutinib/ctrl. rep. 2 (U-2932 cells; IKBKB S550): 0.97
Tirabrutinib/ctrl. rep. 1 (U-2932 cells; IKBKB S672): 1.04
Tirabrutinib/ctrl. rep. 2 (U-2932 cells; IKBKB S672): 1.20
Tirabrutinib/ctrl. rep. 1 (U-2932 cells; IKBKG S455): 1.15
Tirabrutinib/ctrl. rep. 2 (U-2932 cells; IKBKG S455): 0.87
Regulation of Phosphorylation Site (U-2932 cells; MAPK1 T185): ↓
Tirabrutinib/ctrl. rep. 1 (U-2932 cells; MAPK1 T185): 0.23
Tirabrutinib/ctrl. rep. 2 (U-2932 cells; MAPK1 T185): 0.41
Regulation of Phosphorylation Site (U-2932 cells; MAPK1 Y187): ↓
Tirabrutinib/ctrl. rep. 1 (U-2932 cells; MAPK1 Y187): 0.23
Tirabrutinib/ctrl. rep. 2 (U-2932 cells; MAPK1 Y187): 0.41
Tirabrutinib/ctrl. rep. 1 (U-2932 cells; NHE1 S602): 0.96
Tirabrutinib/ctrl. rep. 2 (U-2932 cells; NHE1 S602): 0.92
Tirabrutinib/ctrl. rep. 1 (U-2932 cells; NHE1 S605): 0.95
Tirabrutinib/ctrl. rep. 2 (U-2932 cells; NHE1 S605): 0.92
Tirabrutinib/ctrl. rep. 1 (U-2932 cells; NHE1 S785): 1.08
Tirabrutinib/ctrl. rep. 2 (U-2932 cells; NHE1 S785): 1.26
Tirabrutinib/ctrl. rep. 1 (U-2932 cells; NHE1 S796): 0.80
Tirabrutinib/ctrl. rep. 2 (U-2932 cells; NHE1 S796): 0.78
Tirabrutinib/ctrl. rep. 1 (U-2932 cells; PEA15 S82): 0.89
Tirabrutinib/ctrl. rep. 2 (U-2932 cells; PEA15 S82): 0.86
Tirabrutinib/ctrl. rep. 1 (U-2932 cells; PEA15 S137): 1.18
Tirabrutinib/ctrl. rep. 2 (U-2932 cells; PEA15 S137): 1.03
Tirabrutinib/ctrl. rep. 1 (U-2932 cells; PIK3AP1 S642): 1.22
Tirabrutinib/ctrl. rep. 2 (U-2932 cells; PIK3AP1 S642): 0.88
Tirabrutinib/ctrl. rep. 1 (U-2932 cells; PIK3AP1 T151): 1.02
Tirabrutinib/ctrl. rep. 2 (U-2932 cells; PIK3AP1 T151): 1.07
Tirabrutinib/ctrl. rep. 1 (U-2932 cells; PLCG2 S341): 0.84
Tirabrutinib/ctrl. rep. 2 (U-2932 cells; PLCG2 S341): 1.25
Tirabrutinib/ctrl. rep. 1 (U-2932 cells; PLCG2 S871): 0.99
Tirabrutinib/ctrl. rep. 2 (U-2932 cells; PLCG2 S871): 0.98
Tirabrutinib/ctrl. rep. 1 (U-2932 cells; PLCG2 S1236): 1.17
Tirabrutinib/ctrl. rep. 2 (U-2932 cells; PLCG2 S1236): 0.99
Tirabrutinib/ctrl. rep. 1 (U-2932 cells; PRKCB T497): 0.99
Tirabrutinib/ctrl. rep. 2 (U-2932 cells; PRKCB T497): 1.00
Tirabrutinib/ctrl. rep. 1 (U-2932 cells; PRKCB T500): 0.99
Tirabrutinib/ctrl. rep. 2 (U-2932 cells; PRKCB T500): 1.00
Tirabrutinib/ctrl. rep. 1 (U-2932 cells; PRKCB T641): 1.02
Tirabrutinib/ctrl. rep. 2 (U-2932 cells; PRKCB T641): 1.00
Tirabrutinib/ctrl. rep. 1 (U-2932 cells; PRKD2 S189): 0.90
Tirabrutinib/ctrl. rep. 2 (U-2932 cells; PRKD2 S189): 0.70
Tirabrutinib/ctrl. rep. 1 (U-2932 cells; PRKD2 S206): 0.86
Tirabrutinib/ctrl. rep. 2 (U-2932 cells; PRKD2 S206): 0.83
Tirabrutinib/ctrl. rep. 1 (U-2932 cells; PRKD2 S375): 0.91
Tirabrutinib/ctrl. rep. 2 (U-2932 cells; PRKD2 S375): 0.81
Tirabrutinib/ctrl. rep. 1 (U-2932 cells; PRKD2 S706): 0.77
Tirabrutinib/ctrl. rep. 2 (U-2932 cells; PRKD2 S706): 0.50
Tirabrutinib/ctrl. rep. 1 (U-2932 cells; PRKD2 S710): 0.90
Tirabrutinib/ctrl. rep. 2 (U-2932 cells; PRKD2 S710): 0.77
Tirabrutinib/ctrl. rep. 2 (U-2932 cells; PRKD3 S6): 0.88
Tirabrutinib/ctrl. rep. 2 (U-2932 cells; PRKD3 S27): 0.99
Tirabrutinib/ctrl. rep. 1 (U-2932 cells; PRKD3 S30): 0.97
Tirabrutinib/ctrl. rep. 1 (U-2932 cells; PRKD3 S31): 0.99
Tirabrutinib/ctrl. rep. 2 (U-2932 cells; PRKD3 S31): 0.97
Tirabrutinib/ctrl. rep. 1 (U-2932 cells; PRKD3 S44): 1.09
Tirabrutinib/ctrl. rep. 2 (U-2932 cells; PRKD3 S44): 1.04
Tirabrutinib/ctrl. rep. 1 (U-2932 cells; PRKD3 S213): 1.29
Tirabrutinib/ctrl. rep. 2 (U-2932 cells; PRKD3 S213): 1.25
Tirabrutinib/ctrl. rep. 2 (U-2932 cells; PRKD3 S364): 1.20
Tirabrutinib/ctrl. rep. 1 (U-2932 cells; PRKD3 S376): 0.80
Tirabrutinib/ctrl. rep. 2 (U-2932 cells; PRKD3 S376): 0.94
Tirabrutinib/ctrl. rep. 1 (U-2932 cells; PRKD3 S391): 0.99
Tirabrutinib/ctrl. rep. 2 (U-2932 cells; PRKD3 S391): 0.97
Tirabrutinib/ctrl. rep. 2 (U-2932 cells; PRKD3 S543): 1.05
Tirabrutinib/ctrl. rep. 1 (U-2932 cells; PRKD3 S731): 0.72
Tirabrutinib/ctrl. rep. 2 (U-2932 cells; PRKD3 S731): 0.48
Tirabrutinib/ctrl. rep. 1 (U-2932 cells; PRKD3 S735): 0.85
Tirabrutinib/ctrl. rep. 2 (U-2932 cells; PRKD3 S735): 0.77
Tirabrutinib/ctrl. rep. 1 (U-2932 cells; RAF1 S12): 1.45
Tirabrutinib/ctrl. rep. 2 (U-2932 cells; RAF1 S12): 0.88
Tirabrutinib/ctrl. rep. 2 (U-2932 cells; RAF1 S316): 0.94
Tirabrutinib/ctrl. rep. 1 (U-2932 cells; RAF1 S377): 0.98
Tirabrutinib/ctrl. rep. 2 (U-2932 cells; RAF1 S377): 1.08
Tirabrutinib/ctrl. rep. 1 (U-2932 cells; RAF1 S641): 1.04
Tirabrutinib/ctrl. rep. 2 (U-2932 cells; RAF1 S641): 0.98
Tirabrutinib/ctrl. rep. 2 (U-2932 cells; RAF1 T661): 0.73
Tirabrutinib/ctrl. rep. 1 (U-2932 cells; RELA S238): 1.26
Tirabrutinib/ctrl. rep. 2 (U-2932 cells; RELA S238): 0.86
Tirabrutinib/ctrl. rep. 1 (U-2932 cells; RPS6KA1 S230): 0.99
Tirabrutinib/ctrl. rep. 2 (U-2932 cells; RPS6KA1 S230): 0.99
Tirabrutinib/ctrl. rep. 1 (U-2932 cells; RPS6KA1 S389): 1.55
Tirabrutinib/ctrl. rep. 2 (U-2932 cells; RPS6KA1 S389): 1.00
Tirabrutinib/ctrl. rep. 1 (U-2932 cells; RPS6KA1 S741): 1.16
Tirabrutinib/ctrl. rep. 2 (U-2932 cells; RPS6KA1 S741): 0.87
Tirabrutinib/ctrl. rep. 1 (U-2932 cells; TSC2 S1132): 1.15
Tirabrutinib/ctrl. rep. 2 (U-2932 cells; TSC2 S1132): 0.89
Tirabrutinib/ctrl. rep. 1 (U-2932 cells; TSC2 S1254): 0.44
Tirabrutinib/ctrl. rep. 2 (U-2932 cells; TSC2 S1254): 0.70
Tirabrutinib/ctrl. rep. 1 (U-2932 cells; TSC2 S1336): 1.59
Tirabrutinib/ctrl. rep. 2 (U-2932 cells; TSC2 S1336): 1.33
Tirabrutinib/ctrl. rep. 1 (U-2932 cells; TSC2 S1346): 1.14
Tirabrutinib/ctrl. rep. 2 (U-2932 cells; TSC2 S1346): 1.02
Tirabrutinib/ctrl. rep. 1 (U-2932 cells; TSC2 S1364): 0.82
Tirabrutinib/ctrl. rep. 2 (U-2932 cells; TSC2 S1364): 0.98
Tirabrutinib/ctrl. rep. 1 (U-2932 cells; TSC2 S1385): 1.01
Tirabrutinib/ctrl. rep. 2 (U-2932 cells; TSC2 S1385): 1.30
Tirabrutinib/ctrl. rep. 1 (U-2932 cells; TSC2 S1411): 0.93
Tirabrutinib/ctrl. rep. 2 (U-2932 cells; TSC2 S1411): 0.98
Tirabrutinib/ctrl. rep. 2 (U-2932 cells; TSC2 S1420): 0.93
Tirabrutinib/ctrl. rep. 2 (U-2932 cells; TSC2 S1448): 1.43
Tirabrutinib/ctrl. rep. 1 (U-2932 cells; TSC2 S1449): 1.16
Tirabrutinib/ctrl. rep. 1 (U-2932 cells; TSC2 S1452): 1.16
Tirabrutinib/ctrl. rep. 2 (U-2932 cells; TSC2 S1452): 1.04
Tirabrutinib/ctrl. rep. 1 (U-2932 cells; TSC2 S1798): 0.76
Tirabrutinib/ctrl. rep. 2 (U-2932 cells; TSC2 S1798): 0.73
Tirabrutinib/ctrl. rep. 2 (U-2932 cells; YBX1 S2): 0.99
Tirabrutinib/ctrl. rep. 2 (U-2932 cells; YBX1 S3): 0.99
Tirabrutinib/ctrl. rep. 1 (U-2932 cells; YBX1 S165): 0.98
Tirabrutinib/ctrl. rep. 2 (U-2932 cells; YBX1 S165): 0.91
Tirabrutinib/ctrl. rep. 1 (U-2932 cells; YBX1 S167): 0.91
Tirabrutinib/ctrl. rep. 2 (U-2932 cells; YBX1 S167): 1.13

C=CC(=O)N1CCC([C@@H]2CCNc3c(C(N)=O)c(-c4ccc(Oc5ccccc5)cc4)nn32)CC1 [Zanubrutinib]
IC50 (ERBB2): 34.8 nM
